Measured values: article PMC11873939, “Target Identification with Live-Cell Photoaffinity Labeling and Mechanism of Action Elucidation of ARN23765, a Highly Potent CFTR Corrector” (Journal of Medicinal Chemistry, 2025)

Columns and labels:
[1] = target: T1, wt-CFTR (Homo sapiens, UniProt P13569); experiment: Live-cell photoaffinity labeling, streptavidin pull-down and CFTR Western blot; assay type: binding; conditions: wt-CFTR CFBE41o- cells, 25-fold excess (25 μM) competitor 30 min before probe (1 μM)
T1 construct: expressed in transfected cells
Procedure: (§1) Wt-CFTR or F508del-CFTR CFBE41o- cells were plated at 2–2.5 × 10^6 cells/plate in 6 cm diameter dishes. The day after, sodium butyrate (5–2.5 mM) was added for 24 h; next, the medium was exchanged with fresh one supplemented with DMSO (0.25%) (276855, Sigma-Aldrich) or probe (1 μM). For competition experiments, a 25-fold excess of ARN23765 (25 μM) was added 30 min before probe’s addition. For the analysis of “corrected” F508del-CFTR, F508del-CFTR CFBE41o- cells were kept at 27 °C for 24 h before adding the probes. Probes were incubated with cells for 2 h, then the medium was removed, and plates were washed twice with phosphate buffer saline (PBS). Cells were placed on ice and irradiated for 5 min at a wavelength of 365 nm using a 100-W UV-lamp (95–0127–02 model B100-AP, Analytik Jena). Cells were harvested with trypsin (T4299, Sigma-Aldrich), washed with PBS (D8537, Sigma-Aldrich), and pellets were stored at −80 °C until used, centrifuged at 300 × g and washed twice with PBS (D8537, Sigma-Aldrich). Pellets from in-cell photoaffinity labeling with alkyne-probes (PAP_1 and PAP_2) were lysed in PBS plus protease inhibitor cocktail (78429, Thermo Scientific) by sonication. The suspension was centrifuged at 800 × g for 20 min at 4 °C to discard nuclei and cell debris. The total extracted proteins were quantified with the bicinchoninic acid (BCA) protein assay (23225, Thermo Scientific) and subjected to CuAAC before proceeding with pull-down. Pellets from in-cell photoaffinity labeling with desthio-biotinylated (DS-biot) probes (PAP_1 DS-biot, PAP_2 DS-biot, PAP_N1 DS-biot, PAP_N2 DS-biot) were lysed with a modified RIPA buffer [50 mM tris-HCl pH 8, 150 mM NaCl, 0.5% Triton-X100, 0.2% SDS, 1 mM ethylenediaminetetraacetic acid (EDTA)] supplemented with protease inhibitor cocktail and centrifuged at 10.000× g for 10 min. The protein content in the supernatant was quantified by BCA protein assay. Protein lysate (200 μg) was diluted to 800 μL and the Triton-X100 percentage was reduced to 0.2% before proceeding to pull-down.
Copper-catalyzed azide–alkyne cycloaddition (CuAAC) was performed according to a previously described protocol.[62] Briefly, to the protein preparation (250 μL at 1 mg/mL protein concentration) the following reagents were added at the indicated final concentrations: 100 μM 5/6-TAMRA-azide-desthiobiotin (CLK-1110–5, Jena Bioscience), 1.0 mM tris-(2-carbossietil)phosphine (TCEP, C4706, Sigma-Aldrich), 100 μM tris-[(1-benzyl-1H-1,2,3-triazol-4-yl)methyl]amine (TBTA, 678937, Sigma-Aldrich), 1.0 mM CuSO4.5H2O (Sigma), and 0.8% sodium dodecyl sulfate (SDS). TBTA was first dissolved in DMSO at 83.5 mM and then diluted with four volumes of tert-butanol. The reaction was mixed by vortexing and incubated for 1 h at 25 °C. After the reaction time, proteins were precipitated with 5 volumes of cold acetone overnight at −20 °C. Samples were centrifuged for 20 min at 20.000× g, and the pellets were washed with methanol, air-dried, and finally resuspended with 600 μL of 1% SDS. SDS concentration was then diluted to 0.2% with PBS before proceeding to pull-down.
(§2) High capacity streptavidin agarose (20359, Thermo Scientific) (25 μL) was added to PAP-labeled cell extracts for 1 h at room temperature under gentle rotation. The streptavidin beads were collected by centrifugation and washed four times with lysis buffer. Resin-bound proteins were eluted with 45 μL of 5 mM biotin (B4501, Sigma-Aldrich) for 30 min at room temperature and analyzed with Western blot for CFTR expression. Input samples (4 and 8 μg for wt-CFTR and F508del-CFTR CFBE41o-, respectively) were collected immediately before incubation with streptavidin resin. Input and pulled-down samples were analyzed with WB as described in the supplementary methods.

[2] = target: T2, F508del-CFTR (Homo sapiens, UniProt P13569, DEL508-508); experiment: as above; assay type: binding; conditions: F508del-CFTR CFBE41o- cells, 25-fold excess (25 μM) competitor 30 min before probe (1 μM)
T2 construct: expressed in transfected cells
Procedure: as §1, §2

[3] = target: T3, CFTR MSD1 (Homo sapiens, UniProt P13569); experiment: Cycloheximide chase assay in transfected HEK293 cells; assay type: cell-based; conditions: HEK293, 10 nM 24 h, then 6 h of cycloheximide treatment
T3 construct: MSD1 (residues 1–380); expressed in transfected cells; host or cells: HEK293 (transient, JetPEI)
Procedure: (§3) HEK293 cells were transfected with MSD1- or MSD2-fragments as previously described.[39] After 18 h, cells were treated with either 0.2% DMSO or ARN23765 (10 nM). Following 24 h treatment, the protein synthesis was stopped by addition of a medium containing 0.5 mg/mL cycloheximide and either DMSO (0.2%) or ARN23765 (10 nM). The cells were incubated at 37 °C and lysed at various time periods (0–6 h). The whole cell extracts were then analyzed by WB, as described in the supplementary methods of the Supporting Information.

[4] = target: T4, CFTR MSD2 (Homo sapiens, UniProt P13569); experiment: as above; assay type: cell-based; conditions: HEK293, 10 nM 24 h, then 6 h of cycloheximide treatment
T4 construct: A52-tagged MSD2 (residues 837–1196); expressed in transfected cells; host or cells: HEK293 (transient, JetPEI)
Procedure: as §3

T2 sequence (P13569 with tags, fused parts or gaps DEL508-508): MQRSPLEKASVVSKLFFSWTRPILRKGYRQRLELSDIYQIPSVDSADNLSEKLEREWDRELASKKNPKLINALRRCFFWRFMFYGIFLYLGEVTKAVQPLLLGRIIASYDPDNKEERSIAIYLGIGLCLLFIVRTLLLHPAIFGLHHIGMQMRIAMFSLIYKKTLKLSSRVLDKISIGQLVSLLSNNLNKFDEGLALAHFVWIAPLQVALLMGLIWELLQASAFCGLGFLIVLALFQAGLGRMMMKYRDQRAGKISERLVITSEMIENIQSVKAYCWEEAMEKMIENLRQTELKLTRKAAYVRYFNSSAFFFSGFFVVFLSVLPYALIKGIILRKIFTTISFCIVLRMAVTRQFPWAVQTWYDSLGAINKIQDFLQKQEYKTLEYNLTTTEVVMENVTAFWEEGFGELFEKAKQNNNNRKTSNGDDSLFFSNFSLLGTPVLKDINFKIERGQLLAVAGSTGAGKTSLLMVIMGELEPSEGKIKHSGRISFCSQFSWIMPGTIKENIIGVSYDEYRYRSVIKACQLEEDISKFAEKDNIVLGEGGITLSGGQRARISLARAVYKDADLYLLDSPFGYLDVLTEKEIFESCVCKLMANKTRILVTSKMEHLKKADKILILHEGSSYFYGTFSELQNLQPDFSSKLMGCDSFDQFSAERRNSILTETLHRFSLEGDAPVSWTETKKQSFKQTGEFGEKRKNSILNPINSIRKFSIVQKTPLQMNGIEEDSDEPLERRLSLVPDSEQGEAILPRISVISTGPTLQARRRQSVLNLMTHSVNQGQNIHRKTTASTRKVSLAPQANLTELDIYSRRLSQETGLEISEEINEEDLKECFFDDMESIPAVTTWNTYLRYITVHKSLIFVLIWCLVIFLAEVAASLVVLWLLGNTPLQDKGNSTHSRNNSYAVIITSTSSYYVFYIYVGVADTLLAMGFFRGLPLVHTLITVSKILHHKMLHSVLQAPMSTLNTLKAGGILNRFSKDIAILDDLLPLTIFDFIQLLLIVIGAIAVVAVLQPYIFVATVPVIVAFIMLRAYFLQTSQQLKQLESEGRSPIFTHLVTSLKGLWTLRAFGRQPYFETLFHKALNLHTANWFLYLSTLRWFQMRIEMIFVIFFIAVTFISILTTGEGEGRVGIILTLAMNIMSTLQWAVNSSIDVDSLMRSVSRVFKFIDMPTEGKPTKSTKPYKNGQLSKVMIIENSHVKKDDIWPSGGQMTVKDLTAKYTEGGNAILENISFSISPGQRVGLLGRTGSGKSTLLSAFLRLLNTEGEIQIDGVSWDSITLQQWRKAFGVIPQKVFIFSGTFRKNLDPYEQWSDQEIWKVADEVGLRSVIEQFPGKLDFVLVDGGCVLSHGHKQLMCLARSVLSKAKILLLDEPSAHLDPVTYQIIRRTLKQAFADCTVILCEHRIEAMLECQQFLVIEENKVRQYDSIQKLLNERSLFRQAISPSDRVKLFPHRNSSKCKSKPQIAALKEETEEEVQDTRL
T4 sequence (P13569 837-1196): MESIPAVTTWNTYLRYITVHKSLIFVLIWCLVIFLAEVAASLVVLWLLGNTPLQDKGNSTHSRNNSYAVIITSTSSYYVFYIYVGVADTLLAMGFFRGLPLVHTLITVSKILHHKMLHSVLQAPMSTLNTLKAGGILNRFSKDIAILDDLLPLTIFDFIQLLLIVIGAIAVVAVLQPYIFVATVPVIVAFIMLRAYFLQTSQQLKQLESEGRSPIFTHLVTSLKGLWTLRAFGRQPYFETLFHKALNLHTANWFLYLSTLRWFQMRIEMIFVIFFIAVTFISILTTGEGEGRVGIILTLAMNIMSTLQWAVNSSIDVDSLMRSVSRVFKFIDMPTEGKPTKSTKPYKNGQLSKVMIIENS
T3 sequence (P13569 1-380): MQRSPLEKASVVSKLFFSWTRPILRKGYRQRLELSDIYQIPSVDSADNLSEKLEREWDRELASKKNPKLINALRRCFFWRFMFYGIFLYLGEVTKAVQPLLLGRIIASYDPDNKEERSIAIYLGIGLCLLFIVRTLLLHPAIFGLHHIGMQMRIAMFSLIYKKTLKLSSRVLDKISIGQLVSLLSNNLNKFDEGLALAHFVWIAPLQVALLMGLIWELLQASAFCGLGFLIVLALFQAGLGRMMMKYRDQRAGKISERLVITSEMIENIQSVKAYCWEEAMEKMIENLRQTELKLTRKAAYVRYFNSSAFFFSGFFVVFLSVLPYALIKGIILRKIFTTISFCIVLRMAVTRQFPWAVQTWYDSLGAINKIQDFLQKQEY
T1 sequence (P13569 whole entry): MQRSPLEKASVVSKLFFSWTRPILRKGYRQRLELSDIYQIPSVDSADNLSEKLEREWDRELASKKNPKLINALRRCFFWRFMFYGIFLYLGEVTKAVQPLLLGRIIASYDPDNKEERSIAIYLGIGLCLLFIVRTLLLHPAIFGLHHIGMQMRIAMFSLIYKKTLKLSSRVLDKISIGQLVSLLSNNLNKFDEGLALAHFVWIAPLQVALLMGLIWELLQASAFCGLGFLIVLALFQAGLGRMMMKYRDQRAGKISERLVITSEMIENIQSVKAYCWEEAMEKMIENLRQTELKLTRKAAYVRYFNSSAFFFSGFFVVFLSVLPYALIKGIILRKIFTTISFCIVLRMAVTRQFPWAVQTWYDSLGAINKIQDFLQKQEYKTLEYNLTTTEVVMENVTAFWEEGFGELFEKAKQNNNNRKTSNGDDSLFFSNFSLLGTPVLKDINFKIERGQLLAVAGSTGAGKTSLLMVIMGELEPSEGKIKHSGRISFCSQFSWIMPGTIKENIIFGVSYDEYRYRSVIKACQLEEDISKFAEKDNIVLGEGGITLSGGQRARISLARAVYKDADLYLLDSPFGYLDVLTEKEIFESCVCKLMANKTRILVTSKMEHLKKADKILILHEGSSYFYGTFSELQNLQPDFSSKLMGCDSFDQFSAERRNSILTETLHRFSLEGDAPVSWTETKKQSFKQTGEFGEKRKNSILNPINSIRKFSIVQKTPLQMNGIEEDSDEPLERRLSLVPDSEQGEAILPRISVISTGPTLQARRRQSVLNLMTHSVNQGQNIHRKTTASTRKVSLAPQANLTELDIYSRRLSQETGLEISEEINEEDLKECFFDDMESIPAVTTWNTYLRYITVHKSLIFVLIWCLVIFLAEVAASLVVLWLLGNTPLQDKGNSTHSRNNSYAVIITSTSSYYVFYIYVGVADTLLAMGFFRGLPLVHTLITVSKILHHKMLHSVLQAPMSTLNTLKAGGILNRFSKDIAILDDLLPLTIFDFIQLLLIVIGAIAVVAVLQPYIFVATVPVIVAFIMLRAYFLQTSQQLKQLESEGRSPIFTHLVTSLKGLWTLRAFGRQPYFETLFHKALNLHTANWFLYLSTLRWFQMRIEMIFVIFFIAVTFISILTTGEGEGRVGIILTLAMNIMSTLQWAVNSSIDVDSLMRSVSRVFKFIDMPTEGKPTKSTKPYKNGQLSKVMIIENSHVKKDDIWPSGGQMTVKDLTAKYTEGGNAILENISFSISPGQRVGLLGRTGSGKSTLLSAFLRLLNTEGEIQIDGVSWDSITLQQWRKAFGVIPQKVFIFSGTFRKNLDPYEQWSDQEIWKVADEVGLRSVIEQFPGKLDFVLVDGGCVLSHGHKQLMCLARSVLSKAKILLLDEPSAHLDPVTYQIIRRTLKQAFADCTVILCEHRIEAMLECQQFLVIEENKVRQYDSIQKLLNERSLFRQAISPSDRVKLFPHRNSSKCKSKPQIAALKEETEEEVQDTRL

With CN(C(=O)c1cccc(-n2nc(C(F)(F)F)c3c2[C@@H](Oc2ccc(C(=O)O)cc2)CCC3)c1)c1ccc2c(c1)OC(F)(F)O2 [ARN23765] the “Competition: CFTR recovered in pull-down by PAP_1 DS-biot or PAP_2 DS-biot after preincubation with competitor” value [1] was “markedly reduced amount of the recovered protein”, the “Competition: CFTR recovered in pull-down by PAP_1 DS-biot or PAP_2 DS-biot after preincubation with competitor” value [2] was “markedly reduced amount of the recovered protein” and the MSD1 half-life [3] was “increased”. For the same compound, the MSD2 stability [4] was “no effect”.
